# Assay results from patent US20200308170A1, “KRAS G12C INHIBITORS” (Mirati Therapeutics, Inc., priority 2017, published 2020).
# Molecular target: KRas G12C (Homo sapiens, UniProt P01116, G12C)
# Assay: Inhibition of KRas G12C in NCI-H358 cells measured by phosphorylated ERK (Phospho-ERK)
# Format: cell-based
# Conditions: 3 hours, 4 parameter fit, read-out: IC50 (pERK(Thr202/Tyr204) signal normalized with GAPDH)
# Description: Cells were plated in poly-D-Lysine coated 96-well plates at a concentration of 50,000 cells/well and allowed to attach for 8-12 hours. Diluted compounds were then added at a final concentration of 0.5% DMSO. After 3 hours, the medium was removed, 150 μL of 4% formaldehyde was added and the plates were incubated for 20 minutes. The plates were washed with PBS, and permeabilized using 150 μL of ice cold 100% methanol for 10 minutes. Non-specific antibody binding to the plates was blocked using 100 μL Licor Blocking Buffer (Li-Cor Biotechnology, Lincoln Nebr.) for 1 hour at room temperature. Positive control samples and samples lacking cells were parallel processed with test samples as standards.
# The amount Phospho-ERK was determined using an antibody specific for the phosphorylated form of ERK and compared to the amount of GAPDH. […] The plates were incubated for 2 hours at room temperature. The plates were washed with PBS+0.05% Tween 20.
# Secondary antibodies used to visualize primary antibodies were added as follows: Anti-rabbit-680 diluted 1:1000 and Anti-mouse-800 diluted 1:1000 in Licor Block+0.05% Tween 20 and incubated for 1 hour at room temperature. The plates were washed with PBS+0.05% Tween 20. A 100 μL aliquot of PBS was added to each well and the plates were read on a LICOR AERIUS plate reader.
# The pERK(Thr202/Tyr204) signal was normalized with the GAPDH signal and percent of DMSO control values were calculated. IC50 values were generated using a 4 parameter fit of the dose response curve.
# Sequence of KRas G12C (P01116 1-188 isoform P01116-2 G12C): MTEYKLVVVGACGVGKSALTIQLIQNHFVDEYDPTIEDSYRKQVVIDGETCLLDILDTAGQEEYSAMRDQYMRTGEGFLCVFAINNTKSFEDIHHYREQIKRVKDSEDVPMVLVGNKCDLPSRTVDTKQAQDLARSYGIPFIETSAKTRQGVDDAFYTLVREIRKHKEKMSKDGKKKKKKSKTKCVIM
row,Compound,IC50 [µM]
1,C=C(F)C(=O)N1CCN(c2nc(OC3CN(C)C3)nc3c2CCN(c2cccc4ccc(F)c(Cl)c24)C3)C[C@@H]1CC#N [Example 168],1 to 10
2,C=C(F)C(=O)N1CCN(c2nc(OC[C@@H]3CC4CCN3C4)nc3c2CCN(c2cccc4ccc(F)c(Cl)c24)C3)C[C@@H]1CC#N (some centres unmarked) [Example 180],0.0001 to 1
3,C=C(F)C(=O)N1CCN(c2nc(OC[C@@H]3C[C@@H](OC)CN3C(C)C)nc3c2CCN(c2cccc4ccc(F)c(Cl)c24)C3)C[C@@H]1CC#N [Example 181],0.0001 to 1
4,C=C(F)C(=O)N1CCN(c2nc(O[C@@H]3CCCC[C@H]3N(C)C)nc3c2CCN(c2cccc4ccc(F)c(Cl)c24)C3)C[C@@H]1CC#N [Example 182],1 to 10
5,C=C(F)C(=O)N1CCN(c2nc(OC[C@@H]3C[C@@H](F)CN3C(C)C)nc3c2CCN(c2cccc4ccc(F)c(Cl)c24)C3)C[C@@H]1CC#N [Example 183],0.0001 to 1
6,C=C(F)C(=O)N1CCN(c2nc(OCC34CCCN3CC3(CC3)C4)nc3c2CCN(c2cccc4ccc(F)c(Cl)c24)C3)C[C@@H]1CC#N (some centres unmarked) [Example 184],0.0001 to 1
7,C=C(F)C(=O)N1CCN(c2nc(OC[C@@H]3CCCN3CC)nc3c2CCN(c2cccc4ccc(F)c(Cl)c24)C3)C[C@@H]1CC#N [Example 185],0.0001 to 1
8,C=C(F)C(=O)N1CCN(c2nc(OCC34CCCN3C(C)CC4)nc3c2CCN(c2cccc4ccc(F)c(Cl)c24)C3)C[C@@H]1CC#N (some centres unmarked) [Example 186],0.0001 to 1
9,C=C(F)C(=O)N1CCN(c2nc(OCC3N(C)CC3(C)C)nc3c2CCN(c2cccc4ccc(F)c(Cl)c24)C3)C[C@@H]1CC#N (some centres unmarked) [Example 187],0.0001 to 1
10,C=C(F)C(=O)N1CCN(c2nc(OCC34CC(N(C)C)(C3)C4)nc3c2CCN(c2cccc4ccc(F)c(Cl)c24)C3)C[C@@H]1CC#N [Example 188],0.0001 to 1
11,C=C(F)C(=O)N1CCN(c2nc(OCC3CCOC3)nc3c2CCN(c2cccc4ccc(F)c(Cl)c24)C3)C[C@@H]1CC#N (some centres unmarked) [Example 189],1 to 10
12,C=C(F)C(=O)N1CCN(c2nc(OC[C@@H]3[C@@H]4CC[C@@H](C4)N3C)nc3c2CCN(c2cccc4ccc(F)c(Cl)c24)C3)C[C@@H]1CC#N [Example 190],0.0001 to 1
13,C=C(F)C(=O)N1CCN(c2nc(OCCc3nccn3C)nc3c2CCN(c2cccc4ccc(F)c(Cl)c24)C3)C[C@@H]1CC#N [Example 191],0.0001 to 1
14,C=C(F)C(=O)N1CCN(c2nc(OCC(C)C(F)F)nc3c2CCN(c2cccc4ccc(F)c(Cl)c24)C3)C[C@@H]1CC#N (some centres unmarked) [Example 192],1 to 10
15,C=C(F)C(=O)N1CCN(c2nc(OCCN3C[C@@H]4CC3CO4)nc3c2CCN(c2cccc4ccc(F)c(Cl)c24)C3)C[C@@H]1CC#N [Example 193],0.0001 to 1
16,C=C(F)C(=O)N1CCN(c2nc(OC[C@H]3CN(C)CCO3)nc3c2CCN(c2cccc4ccc(F)c(Cl)c24)C3)C[C@@H]1CC#N [Example 195],0.0001 to 1
17,C=C(F)C(=O)N1CCN(c2nc(OC[C@@H]3CCCN3C3CCC3)nc3c2CCN(c2cccc4ccc(F)c(Cl)c24)C3)C[C@@H]1CC#N [Example 196],0.0001 to 1
18,C=C(F)C(=O)N1CCN(c2nc(OCC3COC3)nc3c2CCN(c2cccc4ccc(F)c(Cl)c24)C3)C[C@@H]1CC#N [Example 197],0.0001 to 1
19,C=C(F)C(=O)N1CCN(c2nc(OCCCN3C[C@@H]4C[C@H]3CO4)nc3c2CCN(c2cccc4ccc(F)c(Cl)c24)C3)C[C@@H]1CC#N [Example 198],0.0001 to 1
20,C=C(F)C(=O)N1CCN(c2nc(OCC3CCC(C)(C)N3C)nc3c2CCN(c2cccc4ccc(F)c(Cl)c24)C3)C[C@@H]1CC#N (some centres unmarked) [Example 199],0.0001 to 1
21,C=C(F)C(=O)N1CCN(c2nc(OCCNCC(F)(F)F)nc3c2CCN(c2cccc4ccc(F)c(Cl)c24)C3)C[C@@H]1CC#N [Example 200],0.0001 to 1
22,C=C(F)C(=O)N1CCN(c2nc(OCC3COCCO3)nc3c2CCN(c2cccc4ccc(F)c(Cl)c24)C3)C[C@@H]1CC#N (some centres unmarked) [Example 201],0.0001 to 1
23,"COC/C=C(\F)C(=O)N1CCN(c2nc(OCC34CCCN3CCC4)nc3c2CCN(c2cccc4ccc(F)c(Cl)c24)C3)C[C@@H]1CC#N [Example 206, (S, Z)-2-(4-(7-(8-chloro-7-fluoronaphthalen-1-yl)-2-((tetrahydro-1H-pyrrolizin-7a(5H)-yl)methoxy)-5,6,7,8-tetrahydropyrido[3,4-d]pyrimidin-4-yl)-1-(2-fluoro-4-methoxybut-2-enoyl)piperazin-2-yl)acetonitrile]",0.0001 to 1
24,"N#CC[C@H]1CN(c2nc(OCC34CCCN3CCC4)nc3c2CCN(c2cccc4ccc(F)c(Cl)c24)C3)CCN1C(=O)/C(F)=C/CF [Example 207, (S, Z)-2-(4-(7-(8-chloro-7-fluoronaphthalen-1-yl)-2-((tetrahydro-1H-pyrrolizin-7a(5H)-yl)methoxy)-5,6,7,8-tetrahydropyrido[3,4-d]pyrimidin-4-yl)-1-(2,4-difluorobut-2-enoyl)piperazin-2-yl)acetonitrile]",0.0001 to 1

# Next, values leading:
row,IC50 [µM],Compound
1,0.0001 to 1,C=C(F)C(=O)N1CCN(c2nc(OCCN3CCCCCC3)nc3c2CCN(c2cccc4ccc(F)c(Cl)c24)C3)C[C@@H]1CC#N [Example 165]
2,0.0001 to 1,C=C(F)C(=O)N1CCN(c2nc(OCC34CCC(CC3)CN4C)nc3c2CCN(c2cccc4ccc(F)c(Cl)c24)C3)C[C@@H]1CC#N [Example 166]
3,0.0001 to 1,C=C(F)C(=O)N1CCN(c2nc(OC[C@@H]3COCCN3Cc3ccccc3)nc3c2CCN(c2cccc4ccc(F)c(Cl)c24)C3)C[C@@H]1CC#N [Example 167]
4,0.0001 to 1,C=C(F)C(=O)N1CCN(c2nc(OC[C@@H]3CC(F)(F)CN3C)nc3c2CCN(c2cccc4ccc(F)c(Cl)c24)C3)C[C@@H]1CC#N [Example 169]
5,0.0001 to 1,C=C(F)C(=O)N1CCN(c2nc(OC[C@@H]3C[C@@H](OC)CN3C)nc3c2CCN(c2cccc4ccc(F)c(Cl)c24)C3)C[C@@H]1CC#N [Example 170]
6,0.0001 to 1,C=C(F)C(=O)N1CCN(c2nc(OCC34CCC(CC3)N4C)nc3c2CCN(c2cccc4ccc(F)c(Cl)c24)C3)C[C@@H]1CC#N [Example 171]
7,0.0001 to 1,C=C(F)C(=O)N1CCN(c2nc(OC[C@@H]3C[C@@H](F)CN3C)nc3c2CCN(c2cccc4ccc(F)c(Cl)c24)C3)C[C@@H]1CC#N [Example 172]
8,0.0001 to 1,C=C(F)C(=O)N1CCN(c2nc(OCC3CN(C)C3)nc3c2CCN(c2cccc4ccc(F)c(Cl)c24)C3)C[C@@H]1CC#N [Example 173]
9,0.0001 to 1,C=C(F)C(=O)N1CCN(c2nc(OCC34CCCN3CC(F)(F)C4)nc3c2CCN(c2cccc4ccc(F)c(Cl)c24)C3)C[C@@H]1CC#N (some centres unmarked) [Example 174]
10,0.0001 to 1,C=C(F)C(=O)N1CCN(c2nc(OCC3(CC)CCCN3C)nc3c2CCN(c2cccc4ccc(F)c(Cl)c24)C3)C[C@@H]1CC#N (some centres unmarked) [Example 175]
11,0.0001 to 1,C=C(F)C(=O)N1CCN(c2nc(OCC3CCCO3)nc3c2CCN(c2cccc4ccc(F)c(Cl)c24)C3)C[C@@H]1CC#N (some centres unmarked) [Example 176]
12,0.0001 to 1,C=C(F)C(=O)N1CCN(c2nc(OCC(C)N3CCOCC3)nc3c2CCN(c2cccc4ccc(F)c(Cl)c24)C3)C[C@@H]1CC#N (some centres unmarked) [Example 177]
13,0.0001 to 1,C=C(F)C(=O)N1CCN(c2nc(OCC3CCN3C(C)C)nc3c2CCN(c2cccc4ccc(F)c(Cl)c24)C3)C[C@@H]1CC#N (some centres unmarked) [Example 178]
14,0.0001 to 1,C=C(F)C(=O)N1CCN(c2nc(OCC3CCN3CC)nc3c2CCN(c2cccc4ccc(F)c(Cl)c24)C3)C[C@@H]1CC#N (some centres unmarked) [Example 179]
